Results reported in patent US9556143B2, “Metalloenzyme inhibitor compounds” (Viamet Pharmaceuticals, Inc., priority 2011, dated 2017).

System: Puccinia recondita tritici = Puccinia triticina (PUCCRT)
Assay: Fungicidal activity vs. wheat leaf rust
Assay type: in vivo, Puccinia recondita tritici on wheat (variety Yuma)
Details: % disease control @ 50 ppm, wheat seedlings sprayed, inoculated the following day, severity evaluated 7-9 days later, read-out: Puccinia Rating
From the text: D. Evaluation of Fungicidal Activity Vs. Leaf Rust (Causal Agent Puccinia recondita tritici=Puccinia triticina; Bayer code PUCCRT). […] Each pot contained 3-8 seedlings. These plants were sprayed until wet with the formulated test compounds. The compounds were formulated at 50 ppm in 10 vol. % acetone plus 90 vol. % Triton X water (deionized water 99.99 wt %+0.01 wt % Triton X100), giving a “formulated test compound.” Formulated test compounds were applied to plants using a turn table sprayer fitted with two opposing air atomization nozzles which delivered approximately 1500 L/ha of spray volume. On the following day, the leaves were inoculated with an aqueous spore suspension of Puccinia recondita tritici and the plants were kept in high humidity overnight to permit spores to germinate and infect the leaf. The plants were then transferred to a greenhouse until disease developed on untreated control plants. Disease severity was evaluated 7-9 days later, depending on the speed of disease development. In each case of Table 3, the Puccinia rating scale is as follows: […]

Row | Compound | pest or weed control at 50 ppm
1 | OC(Cn1cnnn1)(c1ccc(F)cc1F)C(F)(F)c1ccccn1 (stereo not drawn) [2(−), 2-(2,4-Difluorophenyl)-1,1-difluoro-1-(pyridin-2-yl)-3-(1H-tetrazol-1-yl)propan-2-ol] | 80 to 100%
2 | OC(Cn1cnnn1)(c1ccc(F)cc1F)C(F)(F)c1ccc(Br)cn1 (centres unmarked) [Compound 1, 1-(5-Bromopyridin-2-yl)-2-(2,4-difluorophenyl)-1,1-difluoro-3-(1H-tetrazol-1-yl)propan-2-ol] | 80 to 100%
3 | OC(Cn1cnnn1)(c1ccc(F)cc1F)C(F)(F)c1ccc(/C=C/COCC(F)(F)F)cn1 (centres unmarked) [Compound 6, (E)-2-(2,4-Difluorophenyl)-1,1-difluoro-3-(1H-tetrazol-1-yl)-1-(5-(3-(2,2,2-trifluoroethoxy)prop-1-en-1-yl)pyridin-2-yl)propan-2-ol] | < 40%
4 | OC(Cn1cnnn1)(c1ccc(F)cc1F)C(F)(F)c1ccc(F)cn1 (centres unmarked) [Compound 10, 2-(2,4-Difluorophenyl)-1,1-difluoro-1-(5-fluoropyridin-2-yl)-3-(1H-tetrazol-1-yl)propan-2-ol] | 80 to 100%
5 | OC(Cn1cnnn1)(c1ccc(F)cc1F)C(F)(F)c1ccc(CC(F)(F)F)cn1 (centres unmarked) [Compound 17, 2-(2,4-Difluorophenyl)-1,1-difluoro-3-(1H-tetrazol-1-yl)-1-(5-(2,2,2-trifluoroethyl)pyridin-2-yl)propan-2-ol] | 80 to 100%
6 | OC(Cn1cnnn1)(c1ccc(F)cc1F)C(F)(F)c1ccc(C2CC2)cn1 (centres unmarked) [Compound 18, 1-(5-Cyclopropylpyridin-2-yl)-2-(2,4-difluorophenyl)-1,1-difluoro-3-(1H-tetrazol-1-yl)propan-2-ol] | 80 to 100%
7 | OC(Cn1cnnn1)(c1ccc(Cl)cc1F)C(F)(F)c1ccc(Br)cn1 (centres unmarked) [Compound 22, 1-(5-Bromopyridin-2-yl)-2-(4-chloro-2-fluorophenyl)-1,1-difluoro-3-(1H-tetrazol-1-yl)propan-2-ol] | 80 to 100%
8 | Cc1ccc(C(F)(F)C(O)(Cn2cnnn2)c2ccc(F)cc2F)nc1 (centres unmarked) [Compound 25, 2-(2,4-Difluorophenyl)-1,1-difluoro-1-(5-methylpyridin-2-yl)-3-(1H-tetrazol-1-yl)propan-2-ol] | 80 to 100%
9 | OC(Cn1cnnn1)(c1ccc(Cl)cc1F)C(F)(F)c1ccc(Cl)cn1 (centres unmarked) [Compound 26, 2-(4-Chloro-2-fluorophenyl)-1-(5-chloropyridin-2-yl)-1,1-difluoro-3-(1H-tetrazol-1-yl)propan-2-ol] | 80 to 100%
10 | OC(Cn1cnnn1)(c1ccc(Cl)cc1F)C(F)(F)c1ccc(F)cn1 (centres unmarked) [Compound 27, 2-(4-Cloro-2-fluorophenyl)-1,1-difluoro-1-(5-fluoropyridin-2-yl)-3-(1H-tetrazol-1-yl)propan-2-ol] | 80 to 100%
11 | OC(Cn1cnnn1)(c1ccc(Cl)cc1F)C(F)(F)c1ccc(-n2nccn2)cn1 (centres unmarked) [Compound 28, 1-(5-(2H-1,2,3-Triazol-2-yl)pyridin-2-yl)-2-(4-chloro-2-fluorophenyl)-1,1-difluoro-3-(1H-tetrazol-1-yl)propan-2-ol] | 80 to 100%
12 | OC(Cn1cncn1)(c1ccc(F)cc1F)C(F)(F)c1ccc(Cl)cn1 (centres unmarked) [Compound 29, 1-(5-Chloropyridin-2-yl)-2-(2,4-difluorophenyl)-1,1-difluoro-3-(1H-1,2,4-triazol-1-yl)propan-2-ol] | 80 to 100%
13 | COc1ccc(-c2ccc(C(F)(F)C(O)(Cn3cnnn3)c3ccc(F)cc3F)nc2)s1 (centres unmarked) [Compound 32, 2-(2,4-Difluorophenyl)-1,1-difluoro-1-(5-(5-methoxythiophen-2-yl)pyridin-2-yl)-3-(1H-tetrazol-1-yl)propan-2-ol] | 40 to 59%
14 | OC(Cn1cnnn1)(c1ccc(F)cc1F)C(F)(F)c1ccc(-c2ccc(C(F)F)s2)cn1 (centres unmarked) [Compound 33, 1-(5-(5-(Difluoromethyl)thiophen-2-yl)pyridin-2-yl)-2-(2,4-difluorophenyl)-1,1-difluoro-3-(1H-tetrazol-1-yl)propan-2-ol] | 80 to 100%
